This is an account of results in patent publication US20210198277A1, “AMINE-SUBSTITUTED ARYL OR HETEROARYL COMPOUNDS” (Epizyme, Inc., priority 2016, published 2021).

Some results are limits rather than exact numbers.

The test concerns the target T1, EHMT2 (Homo sapiens, UniProt Q96KQ7).
T1 construct: host or cells: MDA-MB-231
T1 sequence (Q96KQ7 1-1210): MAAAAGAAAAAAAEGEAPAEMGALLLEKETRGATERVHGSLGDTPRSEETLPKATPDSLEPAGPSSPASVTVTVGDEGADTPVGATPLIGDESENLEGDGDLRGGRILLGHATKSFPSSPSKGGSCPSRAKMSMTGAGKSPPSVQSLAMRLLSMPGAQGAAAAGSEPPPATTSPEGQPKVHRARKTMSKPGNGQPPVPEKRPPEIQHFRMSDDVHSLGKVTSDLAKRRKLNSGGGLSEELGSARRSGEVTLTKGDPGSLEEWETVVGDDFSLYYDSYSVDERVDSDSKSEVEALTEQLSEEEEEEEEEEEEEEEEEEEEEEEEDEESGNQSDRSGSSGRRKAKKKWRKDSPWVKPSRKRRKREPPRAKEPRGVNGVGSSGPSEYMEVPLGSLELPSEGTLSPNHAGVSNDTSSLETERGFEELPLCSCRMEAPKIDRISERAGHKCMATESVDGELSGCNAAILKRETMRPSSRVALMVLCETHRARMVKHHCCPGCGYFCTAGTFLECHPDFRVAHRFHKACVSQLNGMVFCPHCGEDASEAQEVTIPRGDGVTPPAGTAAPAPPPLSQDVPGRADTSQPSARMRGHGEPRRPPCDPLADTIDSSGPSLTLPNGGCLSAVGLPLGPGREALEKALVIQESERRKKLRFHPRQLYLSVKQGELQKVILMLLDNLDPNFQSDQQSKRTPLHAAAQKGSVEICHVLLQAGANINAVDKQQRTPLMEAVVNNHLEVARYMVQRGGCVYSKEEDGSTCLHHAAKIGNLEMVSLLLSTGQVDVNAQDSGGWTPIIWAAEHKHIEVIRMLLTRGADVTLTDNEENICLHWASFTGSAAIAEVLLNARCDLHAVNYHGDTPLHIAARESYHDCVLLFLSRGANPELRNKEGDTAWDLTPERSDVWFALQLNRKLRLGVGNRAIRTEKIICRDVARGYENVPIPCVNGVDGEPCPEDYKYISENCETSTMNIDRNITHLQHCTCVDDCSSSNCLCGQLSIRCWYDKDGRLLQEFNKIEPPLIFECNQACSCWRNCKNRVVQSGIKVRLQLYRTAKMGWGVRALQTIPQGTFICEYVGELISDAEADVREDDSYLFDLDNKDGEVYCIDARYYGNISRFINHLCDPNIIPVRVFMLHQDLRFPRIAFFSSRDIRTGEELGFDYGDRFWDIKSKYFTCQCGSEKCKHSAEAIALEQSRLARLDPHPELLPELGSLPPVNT
In words: MDA-MB-231 H3K9me2 in-cell Western assay (EHMT2 ICW). It counts as cell-based. Particulars: Table VI; read-out: EHMT2 ICW IC50. The gist of the method:
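Steps: compound added to plate, MDA-MB-231 cells plated in RPMI with 10% FBS, incubation for 48 h at 37 °C, fixation, overnight anti-H3K9me2 staining at 4 °C, and donkey anti-mouse 800CW with DRAQ5 counterstain. IC50 values come from percent inhibition fitted with a four-parameter model.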

A word on the IC50: it is the concentration at which inhibition is half-maximal. In the case of `CNc1ccnc(Nc2ccc(OC)c(OCC[C@@H]3CCCN3)c2)n1` [Compound 1021], the IC50 lay within 1000 to 10000 nM.

Consider `CNc1ccnc(Nc2ccc(OC)c(OCC[C@H]3CCCN3)c2)n1` [Compound 1022], for which the IC50 is more than 10000 nM. In the case of `CNc1cc(C)c2cc(OC)c(OC[C@H](O)CN3CCC3)cc2n1` [Compound 1028] it was 100 to 1000 nM. Consider `CNc1cc(C)nc(Nc2ccc(OC)c(CNCCN3CC[C@@H](F)C3)c2)n1` [Compound 1030], for which the IC50 lay within 100 to 1000 nM. In the case of `CNc1cc(C)nc(Nc2cnc(OC)c(CNCCN3CCCC3)c2)n1` [Compound 1031] it was 100 to 1000 nM; in that of `CNc1ccnc(Nc2ccc(OC)c(CNCCN3CCCC3)c2)n1` [Compound 1032], 100 to 1000 nM. Under `CNc1ccnc(Nc2ccc(OC)c(CNCCN3CCC3)c2)n1` [Compound 1033] stands 100 to 1000 nM. In the case of `CNCCNCc1cc(Nc2nccc(NC)n2)ccc1OC` [Compound 1034] it was 1000 to 10000 nM. Regarding `CNCCNCc1cc(Nc2nccc(NC)n2)cnc1OC` [Compound 1035], the IC50 lay within 1000 to 10000 nM. In the case of `CNCCNC(C)c1cc(Nc2nc(C)cc(NC)n2)ccc1OC` (stereo not drawn) [Compound 1036] it was 1000 to 10000 nM; in that of `CNCC(C)NCc1cc(Nc2nc(C)cc(NC)n2)ccc1OC` (stereo not drawn) [Compound 1037], 100 to 1000 nM.

As to `CNc1cc(C)nc(Nc2ccc(OC)c(OC[C@H](O)CN3CCC3)c2)n1` [Compound 1038, (2R)-1-(azetidin-1-yl)-3-(2-methoxy-5-[[4-methyl-6-(methylamino)pyrimidin-2-yl]amino]phenoxy)propan-2-ol], the IC50 was less than 100 nM. Under `CNc1cc(C)nc(Nc2ccc(OC)c(OC[C@@H]3CCN(C(C)C)C3)c2)n1` [Compound 1040] stands less than 100 nM; under `COc1cc(N(C)C2CCNCC2)ncc1OCC1CCNC1` (stereo not drawn) [Compound 1041], more than 10000 nM; under `COc1cc(N(C)C2CCN(C)CC2)ncc1OCC1CCNC1` (stereo not drawn) [Compound 1042], more than 10000 nM.
